Laboratory results from patent publication US8946189B2, “Transplants” (priority 2007, dated 2015).
“And” between values parts separate entries of the source, which are not always exact repeats. Equal values may be shown once. “Also recorded” adds a separate entry of the source.

Columns and labels:
[1] = test system: human saphenous vein rings and rat aortic rings; assay type: cell-based
[2] = cited from earlier work
[3] = test system: isolated rat aortic rings; experiment: Organ bath tension of isolated rat aortic rings (intact and denuded) precontracted with norepinephrine; assay type: cell-based; conditions: for Tension of aortic rings: after 0.3 uM norepinephrine
[4] = test system: vascular smooth muscle cells; conditions: cited from earlier work
[5] = in vivo; cited from earlier work
[6] = test system: NK(2) and NK(3) receptors; conditions: vs NK(1); cited from earlier work
human NK(1) receptor = human NK(1) receptor (Homo sapiens, UniProt P25103); conditions: cited from earlier work
[7] = oral and/or intravenous, 10, 25, 50 and 100 mg/kg body weight; cited from earlier work

Sequence of human NK(1) receptor (P25103 whole entry): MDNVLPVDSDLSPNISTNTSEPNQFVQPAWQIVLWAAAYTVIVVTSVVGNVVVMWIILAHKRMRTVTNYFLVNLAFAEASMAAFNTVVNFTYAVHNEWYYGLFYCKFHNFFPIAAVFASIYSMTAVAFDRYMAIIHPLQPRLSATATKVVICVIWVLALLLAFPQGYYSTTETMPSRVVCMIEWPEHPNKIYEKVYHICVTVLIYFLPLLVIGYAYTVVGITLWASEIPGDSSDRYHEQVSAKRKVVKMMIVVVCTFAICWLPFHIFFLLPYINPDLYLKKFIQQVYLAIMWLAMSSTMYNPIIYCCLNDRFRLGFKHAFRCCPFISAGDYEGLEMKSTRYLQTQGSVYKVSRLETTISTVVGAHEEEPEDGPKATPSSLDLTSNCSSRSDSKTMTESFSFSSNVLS

Botulinum toxin type A
Relaxation of vascular smooth muscle [1]: dose dependent relaxation

Nc1ncnc2c1ncn2[C@@H]1O[C@H](CO)[C@@H](O)[C@H]1O [Adenosine, 6-amino-9-β-D-ribofuranosyl-9H-purine]
Half life in the blood [2]: about 10 seconds
Relaxation of denuded rings as percent of the relaxation of intact rings ([3]; 400 uM): 35%
Relaxation of denuded rings as percent of the relaxation of intact rings ([3]; 500 uM): 44%
Greater falls in tension than lidocaine alone ([3]; at 400 and 500 uM): about 30%
Concentration at which tension begins to decrease by over 5% relative to the precontracted state ([3]; denuded rings): 300 µM
Tension expressed as a percent of baseline ([3]; denuded rings, 10 uM): 100%
Tension expressed as a percent of baseline ([3]; denuded rings, 50 uM): 100% and 99%
Tension expressed as a percent of baseline ([3]; denuded rings, 100 uM): 99% and 98%
Relaxation (percent tension decrease) relative to the precontracted state ([3]; denuded rings, 200 uM): 4%
Tension expressed as a percent of baseline ([3]; denuded rings, 200 uM): 95% and 93%
Tension expressed as a percent of baseline ([3]; denuded rings, 300 uM): 88%
Extent of relaxation, percentage of precontracted norepinephrine tension ([3]; denuded rings, drug 10 μM): 100.3 ± 0.2%
Tension of aortic rings ([3]; denuded rings, drug 10 μM): 3.56 ± 0.08 g
Extent of relaxation, percentage of precontracted norepinephrine tension ([3]; denuded rings, drug 60 μM): 100.0 ± 0.4%
Tension of aortic rings ([3]; denuded rings, drug 60 μM): 3.55 ± 0.09 g
Extent of relaxation, percentage of precontracted norepinephrine tension ([3]; denuded rings, drug 160 μM): 98.9 ± 0.5%
Tension of aortic rings ([3]; denuded rings, drug 160 μM): 3.51 ± 0.09 g
Extent of relaxation, percentage of precontracted norepinephrine tension ([3]; denuded rings, drug 360 μM): 95.2 ± 1.1%
Tension of aortic rings ([3]; denuded rings, drug 360 μM): 3.39 ± 0.11 g
Extent of relaxation, percentage of precontracted norepinephrine tension ([3]; denuded rings, drug 660 μM): 87.6 ± 2.3%
Tension of aortic rings ([3]; denuded rings, drug 660 μM): 3.12 ± 0.14 g
Extent of relaxation, percentage of precontracted norepinephrine tension ([3]; denuded rings, drug 1060 μM): 76.6 ± 3.4%
Tension of aortic rings ([3]; denuded rings, drug 1060 μM): 2.73 ± 0.17 g
Extent of relaxation, percentage of precontracted norepinephrine tension ([3]; denuded rings, drug 1560 μM): 62.4 ± 4.2%
Tension of aortic rings ([3]; denuded rings, drug 1560 μM): 2.23 ± 0.17 g
Concentration at which tension begins to decrease by over 5% relative to the precontracted state ([3]; intact rings): 100 µM
Relaxation (percent tension decrease) relative to the precontracted state ([3]; intact rings, 10 uM): no change
Tension expressed as a percent of baseline ([3]; intact rings, 10 uM): 99%
Relaxation (percent tension decrease) relative to the precontracted state ([3]; intact rings, 50 uM): no change
Tension expressed as a percent of baseline ([3]; intact rings, 50 uM): 96%
Tension expressed as a percent of baseline ([3]; intact rings, 100 uM): 89%
Tension expressed as a percent of baseline ([3]; intact rings, 200 uM): 76%
Tension expressed as a percent of baseline ([3]; intact rings, 300 uM): 61%
Tension expressed as a percent of baseline ([3]; intact rings, 400 uM): 48%
Tension expressed as a percent of baseline ([3]; intact rings, 500 uM): 39%
Maximum relaxation relative to the precontracted state ([3]; intact rings, at 500 uM): 48%
Extent of relaxation, percentage of precontracted norepinephrine tension ([3]; intact rings, drug 10 μM): 99.0 ± 0.3%
Tension of aortic rings ([3]; intact rings, drug 10 μM): 3.65 ± 0.12 g
Extent of relaxation, percentage of precontracted norepinephrine tension ([3]; intact rings, drug 60 μM): 96.2 ± 0.7%
Tension of aortic rings ([3]; intact rings, drug 60 μM): 3.54 ± 0.11 g
Extent of relaxation, percentage of precontracted norepinephrine tension ([3]; intact rings, drug 160 μM): 89.7 ± 1.5%
Tension of aortic rings ([3]; intact rings, drug 160 μM): 3.30 ± 0.09 g
Extent of relaxation, percentage of precontracted norepinephrine tension ([3]; intact rings, drug 360 μM): 76.3 ± 3.1%
Tension of aortic rings ([3]; intact rings, drug 360 μM): 2.81 ± 0.11 g
Extent of relaxation, percentage of precontracted norepinephrine tension ([3]; intact rings, drug 660 μM): 60.7 ± 4.2%
Tension of aortic rings ([3]; intact rings, drug 660 μM): 2.23 ± 0.14 g
Extent of relaxation, percentage of precontracted norepinephrine tension ([3]; intact rings, drug 1060 μM): 48.5 ± 3.9%
Tension of aortic rings ([3]; intact rings, drug 1060 μM): 1.78 ± 0.13 g
Extent of relaxation, percentage of precontracted norepinephrine tension ([3]; intact rings, drug 1560 μM): 38.9 ± 2.8%
Tension of aortic rings ([3]; intact rings, drug 1560 μM): 1.43 ± 0.08 g
Dependence of relaxation on an intact endothelium (denuded vs intact rings) [3]: dependent on an intact endothelium

OCCN(CCO)c1nc(N2CCCCC2)c2nc(N(CCO)CCO)nc(N3CCCCC3)c2n1 [Dipyridamole]
Inhibition of growth of vascular smooth muscle cells ([4]; 75 microg/mL (0.150 mM), Kim et al): approximately 90%
Duration of sustained antiproliferative effects ([4]; after drug exposure of only 15 min): 48 h

CSCC[C@@H]1NC(=O)[C@H](CC(C)C)NC(=O)[C@H](CCCNC(=N)N)NC(=O)[C@H](CO)NC(=O)[C@@H]2CSSC[C@@H]3NC(=O)[C@H](CO)NC(=O)CNC(=O)[C@H]([C@@H](C)O)NC(=O)[C@H](CSSC[C@H](N)C(=O)N[C@@H](CCCCN)C(=O)NCC(=O)N[C@@H](CCCCN)C(=O)NCC(=O)N[C@@H](C)C(=O)N[C@@H](CCCCN)C(=O)N2)NC(=O)[C@H](CSSC[C@@H](C(N)=O)NC(=O)[C@H](CCCCN)NC(=O)CNC(=O)[C@H](CO)NC(=O)[C@H](CCCNC(=N)N)NC3=O)NC(=O)[C@H](CC(=O)O)NC(=O)[C@H](Cc2ccc(O)cc2)NC1=O [Omega conotoxin MVIIA]
Potency as an analgesic relative to morphine [5]: 100-1000 fold

Cc1cccc(C)c1NC(=O)C[C@H]1CCN(C(=O)c2cc(C(F)(F)F)cc(C(F)(F)F)c2)[C@@H](Cc2ccccc2)C1.O=C(O)C[C@H](O)C(=O)O (relative stereo) [R116301, (2R-trans)-4-[1-[3,5-bis(trifluoromethyl)benzoyl]-2-(phenylmethyl)-4-piperidinyl]-N-(2,6-dimethylphenyl)-1-acetamide (S)-Hydroxybutanedioate]
Selectivity toward NK(2) and NK(3) receptors [6]: over 200 fold
Ki (human NK(1) receptor): 0.45 nM

CCN(CC)CC(=O)Nc1c(C)cccc1C [Lidocaine]
Concentration at which tension begins to decrease by over 5% relative to the precontracted state ([3]; denuded rings): 200 µM
Relaxation (percent tension decrease) relative to the precontracted state ([3]; denuded rings, 200 uM): 7%
Extent of relaxation, percentage of precontracted norepinephrine tension ([3]; denuded rings, drug 10 μM): 100.0 ± 0.4%
Tension of aortic rings ([3]; denuded rings, drug 10 μM): 3.32 ± 0.12 g
Extent of relaxation, percentage of precontracted norepinephrine tension ([3]; denuded rings, drug 60 μM): 99.4 ± 0.4%
Tension of aortic rings ([3]; denuded rings, drug 60 μM): 3.31 ± 0.12 g
Extent of relaxation, percentage of precontracted norepinephrine tension ([3]; denuded rings, drug 160 μM): 96.8 ± 0.7%
Tension of aortic rings ([3]; denuded rings, drug 160 μM): 3.24 ± 0.12 g
Extent of relaxation, percentage of precontracted norepinephrine tension ([3]; denuded rings, drug 360 μM): 93.4 ± 0.6%
Tension of aortic rings ([3]; denuded rings, drug 360 μM): 3.11 ± 0.12 g
Tension of aortic rings ([3]; denuded rings, drug 660 μM): 2.92 ± 0.12 g
Extent of relaxation, percentage of precontracted norepinephrine tension ([3]; denuded rings, drug 1060 μM): 82.4 ± 1.0%
Tension of aortic rings ([3]; denuded rings, drug 1060 μM): 2.75 ± 0.12 g
Extent of relaxation, percentage of precontracted norepinephrine tension ([3]; denuded rings, drug 1560 μM): 75.8 ± 2.0%
Tension of aortic rings ([3]; denuded rings, drug 1560 μM): 2.53 ± 0.13 g
Concentration at which tension begins to decrease by over 5% relative to the precontracted state ([3]; intact rings): 200 µM
Relaxation (percent tension decrease) relative to the precontracted state ([3]; intact rings, 10 uM): no change
Tension expressed as a percent of baseline ([3]; intact rings, 10 uM): 100%
Relaxation (percent tension decrease) relative to the precontracted state ([3]; intact rings, 50 uM): no change
Tension expressed as a percent of baseline ([3]; intact rings, 50 uM): 96%
Relaxation (percent tension decrease) relative to the precontracted state ([3]; intact rings, 100 uM): 5%
Tension expressed as a percent of baseline ([3]; intact rings, 100 uM): 96%
Tension expressed as a percent of baseline ([3]; intact rings, 200 uM): 91%
Relaxation relative to the relaxation of intact adenosine alone ([3]; intact rings, 300 uM): 14%
Tension expressed as a percent of baseline ([3]; intact rings, 300 uM): 84%
Relaxation (percent tension decrease) relative to the precontracted state ([3]; intact rings, 400 uM): 24%
Relaxation relative to the relaxation of intact adenosine alone ([3]; intact rings, 400 uM): 30%
Tension expressed as a percent of baseline ([3]; intact rings, 400 uM): 76%
Relaxation relative to the relaxation of intact adenosine alone ([3]; intact rings, 500 uM): 30%
Tension expressed as a percent of baseline ([3]; intact rings, 500 uM): 72%
Extent of relaxation, percentage of precontracted norepinephrine tension ([3]; intact rings, drug 10 μM): 99.7 ± 0.2%
Tension of aortic rings ([3]; intact rings, drug 10 μM): 3.57 ± 0.08 g
Extent of relaxation, percentage of precontracted norepinephrine tension ([3]; intact rings, drug 60 μM): 97.8 ± 0.7%
Tension of aortic rings ([3]; intact rings, drug 60 μM): 3.50 ± 0.08 g
Extent of relaxation, percentage of precontracted norepinephrine tension ([3]; intact rings, drug 160 μM): 96.2 ± 0.6%
Tension of aortic rings ([3]; intact rings, drug 160 μM): 3.44 ± 0.07 g
Extent of relaxation, percentage of precontracted norepinephrine tension ([3]; intact rings, drug 360 μM): 91.7 ± 0.5%
Tension of aortic rings ([3]; intact rings, drug 360 μM): 3.28 ± 0.07 g
Extent of relaxation, percentage of precontracted norepinephrine tension ([3]; intact rings, drug 660 μM): 84.4 ± 1.2%
Tension of aortic rings ([3]; intact rings, drug 660 μM): 3.02 ± 0.07 g
Extent of relaxation, percentage of precontracted norepinephrine tension ([3]; intact rings, drug 1060 μM): 76.2 ± 3.5%
Tension of aortic rings ([3]; intact rings, drug 1060 μM): 2.73 ± 0.13 g
Extent of relaxation, percentage of precontracted norepinephrine tension ([3]; intact rings, drug 1560 μM): 72.2 ± 3.5%
Tension of aortic rings ([3]; intact rings, drug 1560 μM): 2.59 ± 0.14 g
Dependence of relaxation on an intact endothelium (denuded vs intact rings) [3]: endothelium independent; also recorded: does not appear to be endothelium dependent

NC(=O)c1ncn([C@@H]2O[C@H](CO)[C@@H](O)[C@H]2O)c1N [Acadesine, 5-amino-4-imidazole carboxamide ribonucleoside]
Safety in humans [7]: safe in humans
